Test results as given in paper PMC5216742, “Discovery and characterization of a novel potent type II native and mutant BCR-ABL inhibitor (CHMFL-074) for Chronic Myeloid Leukemia (CML)” (Oncotarget, 2016).
Entries after “also recorded” stand apart in the source; their conditions may differ.

Legend:
K562 tumor xenografts = test: K562 xenograft tumor model; assay type: in vivo
From the text: Five-week old female nu/nu mice were purchased from the Shanghai Experimental Center, Chinese Science Academy (Shanghai, China). All animals were housed in a specific pathogen-free facility and used according to the animal care regulations of Hefei Institutes of Physical Science Chinese Academy of Sciences. Prior to implantation, cells were harvested during exponential growth. Five million K562 cells in PBS were formulated as a 1:1 mixture with Matrigel (BD Biosciences) and injected into the subcutaneous space on the right flank of nu/nu mice. Daily oral administration was initiated when K562 tumors had reached a size of 200 to 300 mm^3. Animals were then randomized into treatment groups of 6 mice each for efficacy studies. CHMFL-074 was delivered daily in a HKI solution (0.5% Methocellulose/0.4% Tween 80 in dd H2O) by orally gavage. Body weight was measured daily and tumor growth was measured every day after CHMFL-074 treatment. Tumor volumes were calculated as follows: tumor volume (mm^3) = [(W^2 × L)/2] in which width (W) is defined as the smaller of the two measurements and length (L) is defined as the larger of the two measurements.

[1] = target: T1, ABL1(Q252H)-nonphosphorylated (Homo sapiens, UniProt P00519, Q252H); test: KinomeScan profiling; assay type: binding; settings: 1 µM CHMFL-074; read-out: % Control
T1 construct: purchased DiscoveRx (KinomeScan service)

[2] = target: T2, ABL1(M351T)-phosphorylated (Homo sapiens, UniProt P00519, M351T); test: KinomeScan profiling; assay type: binding; settings: 1 µM CHMFL-074; read-out: % Control
T2 construct: purchased DiscoveRx (KinomeScan service)

[3] = target: T3, ABL1(E255K)-phosphorylated (Homo sapiens, UniProt P00519, E255K); test: KinomeScan profiling; assay type: binding; settings: 1 µM CHMFL-074; read-out: % Control
T3 construct: purchased DiscoveRx (KinomeScan service)

[4] = target: T4, ABL1(Y253F)-phosphorylated (Homo sapiens, UniProt P00519, Y253F); test: KinomeScan profiling; assay type: binding; settings: 1 µM CHMFL-074; read-out: % Control
T4 construct: purchased DiscoveRx (KinomeScan service)

[5] = target: T5, ABL1(H396P)-nonphosphorylated (Homo sapiens, UniProt P00519, H396P); test: KinomeScan profiling; assay type: binding; settings: 1 µM CHMFL-074; read-out: % Control
T5 construct: purchased DiscoveRx (KinomeScan service)

DDR1 = target: T6, DDR1 (Homo sapiens, UniProt Q08345); test: KinomeScan profiling; assay type: binding; settings: 1 µM CHMFL-074; read-out: % Control
T6 construct: purchased DiscoveRx (KinomeScan service)
T6 sequence (Q08345 19-913): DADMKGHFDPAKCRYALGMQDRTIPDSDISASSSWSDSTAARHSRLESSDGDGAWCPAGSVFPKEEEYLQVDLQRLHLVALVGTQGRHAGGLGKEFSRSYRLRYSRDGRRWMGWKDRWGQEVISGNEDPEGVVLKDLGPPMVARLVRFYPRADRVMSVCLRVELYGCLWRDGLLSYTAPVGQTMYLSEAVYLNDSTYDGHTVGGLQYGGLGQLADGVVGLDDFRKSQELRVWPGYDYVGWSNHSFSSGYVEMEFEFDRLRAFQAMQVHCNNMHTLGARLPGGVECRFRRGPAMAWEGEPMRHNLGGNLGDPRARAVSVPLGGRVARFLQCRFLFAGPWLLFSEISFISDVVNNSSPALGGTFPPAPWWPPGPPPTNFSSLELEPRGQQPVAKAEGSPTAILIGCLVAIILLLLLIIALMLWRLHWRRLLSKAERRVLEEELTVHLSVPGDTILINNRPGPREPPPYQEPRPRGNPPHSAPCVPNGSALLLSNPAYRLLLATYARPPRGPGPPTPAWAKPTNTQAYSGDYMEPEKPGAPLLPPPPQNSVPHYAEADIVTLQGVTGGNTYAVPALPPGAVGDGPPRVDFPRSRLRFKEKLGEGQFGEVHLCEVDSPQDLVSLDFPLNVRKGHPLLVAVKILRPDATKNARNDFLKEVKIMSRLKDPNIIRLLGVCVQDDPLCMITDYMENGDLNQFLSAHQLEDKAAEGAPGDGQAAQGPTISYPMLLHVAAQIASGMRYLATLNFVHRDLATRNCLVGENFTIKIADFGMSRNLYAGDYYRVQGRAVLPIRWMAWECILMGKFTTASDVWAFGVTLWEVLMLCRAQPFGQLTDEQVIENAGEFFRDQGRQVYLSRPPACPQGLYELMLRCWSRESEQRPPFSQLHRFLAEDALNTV

Tel-PDGFRα-BaF3 = test: Anti-proliferation, BaF3 isogenic cell lines; assay type: cell-based; settings: Mus musculus, BaF3, 72 h
From the text: (§1) Retroviral constructs for fusion kinases were made based on the pMSCVpuro (Clontech) backbone. For TEL fusion vectors, the first 1 kb of human TEL gene with an artificial myristoylation sequence ([…]) was cloned into pMSCVpuro retroviral vector, followed by a 3xFLAG tag sequence and a stop codon; for BCR fusion vectors, the first 2.8 kb coding region of p210 amplified from K562 cell line was used in fusion constructs. Then the kinase domain coding sequences were inserted in-frame between TEL/BCR and 3xFLAG sequences. All mutagenesis were performed using the QuikChange Site-Directed Mutagenesis Kit (Stratagene) following the manufacturer's instructions. Retrovirus was packaged in HEK293T cells by transfecting kinase-fusion MSCV vectors together with two helper plasmids, virus supernatants were harvested 48 hours after transfection and filtered before infection. Then BaF3 cells were infected with harvested virus supernatants using spinoculation protocol and stable cell lines were obtained by puromycin selection for 48 hours. A second selection in the absence of IL-3 was performed to obtain IL-3 independent cell lines that solely depend on the introduced kinase activities for cell proliferation.
(§2) A density of 1 × 10^4 to 2.5 × 10^4 cells/mL cells were mixed with various concentrations of compounds then 100 μL suspension was added to each well and incubated for 72 hours. Cell viability was determined using the CellTiter-Glo assay (Promega, USA) or CCK-8 assay (Beboy, China). Both assays were performed according to the manufacturer instructions. For CellTiter-Glo assay, luminescence was determined in a multi-label reader (Envision, PerkinElmer, USA). […] Data were normalized to control group (DMSO). GI50 were calculated using Prism 6.0 (GraphPad Software, San Diego, CA).

P210-Y253F-BaF3 = test: Anti-proliferation, BaF3 isogenic cell lines; assay type: cell-based; settings: Mus musculus, BaF3, 72 h
From the text: as §1, §2

P210-E255K-BaF3 = test: Anti-proliferation, BaF3 isogenic cell lines; assay type: cell-based; settings: Mus musculus, BaF3, 72 h
From the text: as §1, §2

P210-F317L-BaF3 = test: Anti-proliferation, BaF3 isogenic cell lines; assay type: cell-based; settings: Mus musculus, BaF3, 72 h
From the text: as §1, §2

Tel-RET-BaF3 = test: Anti-proliferation, BaF3 isogenic cell lines; assay type: cell-based; settings: Mus musculus, BaF3, 72 h
From the text: as §1, §2

BaF3 = test: Anti-proliferation, BaF3 isogenic cell lines; assay type: cell-based; settings: Mus musculus, BaF3, 72 h
From the text: as §1, §2

P210-Q252H-BaF3 = test: Anti-proliferation, BaF3 isogenic cell lines; assay type: cell-based; settings: Mus musculus, BaF3, 72 h
From the text: as §1, §2

Tel-PDGFRβ-BaF3 = test: Anti-proliferation, BaF3 isogenic cell lines; assay type: cell-based; settings: Mus musculus, BaF3, 72 h
From the text: as §1, §2

P210-F317I-BaF3 = test: Anti-proliferation, BaF3 isogenic cell lines; assay type: cell-based; settings: Mus musculus, BaF3, 72 h
From the text: as §1, §2

TEL-DDR1-BaF3 = test: Anti-proliferation, BaF3 isogenic cell lines; assay type: cell-based; settings: Mus musculus; TEL-DDR1-BaF3, 72 hours
From the text: as §1, §2

Tel-LCK-BaF3 = test: Anti-proliferation, BaF3 isogenic cell lines; assay type: cell-based; settings: Mus musculus; Tel-LCK-BaF3, 72 hours
From the text: as §1, §2

Tel-BLK-BaF3 = test: Anti-proliferation, BaF3 isogenic cell lines; assay type: cell-based; settings: Mus musculus, BaF3, 72 h
From the text: as §1, §2

P210-T315I-BaF3 = test: Anti-proliferation, BaF3 isogenic cell lines; assay type: cell-based; settings: Mus musculus; P210-T315I-BaF3, 72 hours
From the text: as §1, §2

BCR-DDR2-BaF3 = test: Anti-proliferation, BaF3 isogenic cell lines; assay type: cell-based; settings: Mus musculus, BaF3, 72 h
From the text: as §1, §2

P210-M351T-BaF3 = test: Anti-proliferation, BaF3 isogenic cell lines; assay type: cell-based; settings: Mus musculus, BaF3, 72 h
From the text: as §1, §2

Tel-HCK-BaF3 = test: Anti-proliferation, BaF3 isogenic cell lines; assay type: cell-based; settings: Mus musculus, BaF3, 72 h
From the text: as §1, §2

P210-H369P-BaF3 = test: Anti-proliferation, BaF3 isogenic cell lines; assay type: cell-based; settings: Mus musculus, BaF3, 72 h
From the text: as §1, §2

Cc1ccc(NC(=O)c2ccc(CN3CCN(C)CC3)c(C(F)(F)F)c2)cc1OC1CCN(C(=O)c2cccnc2)CC1 [CHMFL-074] was tested, and the “TGI (tumor growth inhibition)” value (K562 tumor xenografts; 100 mg/kg/d oral, 12-day treatment) was 65%, the “toxicity in xenograft mice” value (K562 tumor xenografts; 100 mg/kg/day oral) was “without exhibiting apparent toxicity; also recorded: no apparent toxicity was observed” and the remaining binding at 1 µM [1] was 0.75%. It also gave a remaining binding at 1 µM [2] of 1%, a remaining binding at 1 µM [3] of 0.3% and a remaining binding at 1 µM [4] of 0.3%. The remaining binding at 1 µM [5] was 0.15%, the remaining binding at 1 µM (DDR1) was less than 1% and the GI50 (Tel-PDGFRα-BaF3) was 95 nM. For the same compound, the GI50 (P210-Y253F-BaF3) was 338 nM, the GI50 (P210-E255K-BaF3) was 774 nM and the GI50 (P210-F317L-BaF3) was 218 nM. For the same compound, the GI50 (Tel-RET-BaF3) was 630 nM, the GI50 (BaF3) was greater than 10000 nM and the GI50 (P210-Q252H-BaF3) was 118 nM. It also gave a GI50 (Tel-PDGFRβ-BaF3) of 52 nM, a GI50 (P210-F317I-BaF3) of 355 nM and a GI50 (TEL-DDR1-BaF3) of 3520 nM. The GI50 (Tel-LCK-BaF3) was 2020 nM, the GI50 (Tel-BLK-BaF3) was 2860 nM and the GI50 (P210-T315I-BaF3) was greater than 10000 nM. It also gave a GI50 (BCR-DDR2-BaF3) of 2670 nM, a GI50 (P210-M351T-BaF3) of 349 nM and a GI50 (Tel-HCK-BaF3) greater than 10000 nM. It also gave a GI50 (P210-H369P-BaF3) of 1040 nM.
